In ChEMBL document CHEMBL1770073, “Synthesis of cinnamoyl ketoamides as hybrid structures of antioxidants and calpain inhibitors” (Bioorg Med Chem Lett, 2011):

Assays:
[1] = target: T1, Calpain-1 catalytic subunit (Homo sapiens, UniProt P07384); assay: Inhibition of human erythrocytes mu-calpain using Suc-Leu-Tyr-AMC fluorogenic substrate after 30 mins by spectrofluorimetry
T1 sequence (P07384 whole entry): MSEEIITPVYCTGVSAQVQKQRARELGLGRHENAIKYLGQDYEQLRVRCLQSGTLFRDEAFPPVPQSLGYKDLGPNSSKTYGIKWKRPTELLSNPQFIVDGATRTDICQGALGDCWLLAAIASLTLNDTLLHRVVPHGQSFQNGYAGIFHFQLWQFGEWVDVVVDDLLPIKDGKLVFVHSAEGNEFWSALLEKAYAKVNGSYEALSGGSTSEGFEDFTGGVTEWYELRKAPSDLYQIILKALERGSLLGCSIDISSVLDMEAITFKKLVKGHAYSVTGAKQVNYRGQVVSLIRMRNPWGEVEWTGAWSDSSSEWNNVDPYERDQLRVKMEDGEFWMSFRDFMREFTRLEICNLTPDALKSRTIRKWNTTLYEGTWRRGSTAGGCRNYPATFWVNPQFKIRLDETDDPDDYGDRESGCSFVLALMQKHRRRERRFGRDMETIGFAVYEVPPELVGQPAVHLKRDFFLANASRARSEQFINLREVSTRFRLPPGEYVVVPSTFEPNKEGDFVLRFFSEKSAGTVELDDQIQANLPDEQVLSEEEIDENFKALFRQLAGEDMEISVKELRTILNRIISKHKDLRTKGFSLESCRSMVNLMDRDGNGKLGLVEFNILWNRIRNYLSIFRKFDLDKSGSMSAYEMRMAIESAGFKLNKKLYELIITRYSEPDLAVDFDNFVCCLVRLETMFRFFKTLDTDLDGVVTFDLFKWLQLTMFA

[2] = Antioxidant activity assessed as xanthine-xanthine oxidase generated superoxide anion scavenging after 20 mins; assay type: functional
[3] = tested on: Radical scavenging activity; assay: Antioxidant activity assessed as DPPH free radical scavenging activity after 30 mins; assay type: functional
Liver = assay: Antioxidant activity in rat liver homogenates assessed as inhibition of lipid peroxidation by measuring formation of thiobarbituric acid-reactive substance after 30 mins; assay type: functional, tissue-based; conditions: 0.5 h

Compound | IC50 [1] [µM] | IC50 [2] [µM] | IC50 [3] [µM] | IC50 (Liver) [µM]
Cc1c(C(=O)N[C@@H](Cc2ccccc2)C(=O)C(N)=O)oc2ccccc2c1=O | 0.07 | > 100 | > 100 | > 100
O=C(/C=C/c1ccc(O)c(O)c1)N[C@@H](Cc1ccccc1)C(=O)C(=O)NCc1ccccc1 | 6.07 | 31.2 | 40.4 | 7.53
CCCC/C(=C\c1ccc(O)c(O)c1)C(=O)N[C@@H](Cc1ccccc1)C(=O)C(=O)NCc1ccccc1 (stereo in doubt) | 0.67 | 30.9 | 36.7 | 7.34
CCCC/C(=C\c1ccc(OC)c(OC)c1)C(=O)N[C@@H](Cc1ccccc1)C(=O)C(=O)NCCc1ccc(OC)cc1 (stereo in doubt) | 1.38 | > 100 | > 100 | > 100
CCC/C(=C\c1ccc(O)c(O)c1)C(=O)N[C@@H](Cc1ccccc1)C(=O)C(=O)NCCc1ccc(OC)cc1 (stereo in doubt) | 0.13 | 38 | 48.6 | 5.71
COc1ccc(OC)c(C(=O)CCC(=O)N[C@@H](Cc2ccccc2)C(=O)C(N)=O)c1 | – | > 100 | > 100 | > 100
CCCC/C(=C\c1ccc(O)c(O)c1)C(=O)N[C@@H](Cc1ccccc1)C(=O)C(=O)NCCc1ccc(OC)cc1 (stereo in doubt) | 0.5 | 41.4 | 38.9 | 5.88
CC/C(=C\c1ccc(O)c(O)c1)C(=O)N[C@@H](Cc1ccccc1)C(=O)C(=O)NCc1ccccc1 (stereo in doubt) | 0.61 | 15.5 | 45.5 | 6.09
CCC/C(=C\c1ccc(O)c(O)c1)C(=O)N[C@@H](Cc1ccccc1)C(=O)C(=O)NCc1ccccc1 (stereo in doubt) | 0.36 | 27.1 | 42.2 | 6.15
CCCC/C(=C\c1ccc(O)c(OC)c1)C(=O)N[C@@H](Cc1ccccc1)C(=O)C(=O)NCCc1ccc(OC)cc1 (stereo in doubt) | 0.63 | > 100 | > 100 | 36.1
O=C1O[C@H]([C@@H](O)CO)C(O)=C1O [ASCORBIC ACID] | – | > 100 | 30.8 | > 100
CC(C)C/C(=C\c1ccc(O)c(O)c1)C(=O)N[C@@H](Cc1ccccc1)C(=O)C(=O)NCc1ccccc1 (stereo in doubt) | 0.32 | 41.7 | 44.6 | 6.06
Cc1c(C)c2c(c(C)c1O)CCC(C)(C(=O)O)O2 (stereo unspecified) [TROLOX] | – | – | – | 71.4
CC/C(=C\c1ccc(O)c(O)c1)C(=O)N[C@@H](Cc1ccccc1)C(=O)C(=O)NCCc1ccc(OC)cc1 (stereo in doubt) | 0.46 | 29.2 | 46.1 | 6.4
